In ChEMBL document CHEMBL3885881, “DrugMatrix”:

Species: Rattus norvegicus
Assay: DrugMatrix - Regimen: Daily Repeat
Type: toxicity, organism-based, Sprague-Dawley
Design: regimen Daily Repeat, gender Male, age 6-8 weeks
Conditions: in vivo, po, route oral GAVAGE, […]; for ABSOLUTE BASOPHIL / ABSOLUTE EOSINOPHIL / ABSOLUTE LYMPHOCYTE / ABSOLUTE MONOCYTE / ABSOLUTE SEGMENTED NEUTROPHIL / BASOPHIL / EOSINOPHIL / ERYTHROCYTE COUNT / HEMATOCRIT / HEMOGLOBIN / LEUKOCYTE COUNT / LYMPHOCYTE / MEAN CORPUSCULAR HEMOGLOBIN / MEAN CORPUSCULAR HEMOGLOBIN CONCENTRATION / MONOCYTE / NEUTROPHIL / NUCLEATED RED BLOOD CELLS / PLATELET COUNT: tissue Blood; for ALANINE AMINOTRANSFERASE / ALBUMIN / ALKALINE PHOSPHATASE / ASPARTATE AMINOTRANSFERASE / BLOOD UREA NITROGEN / CARBON DIOXIDE / CHLORIDE / CHOLESTEROL / CREATINE PHOSPHOKINASE / CREATININE / GLUCOSE / LACTATE DEHYDROGENASE / LIPASE / PHOSPHORUS / POTASSIUM / SODIUM / TOTAL BILIRUBIN / TOTAL PROTEIN / URIC ACID: tissue Plasma
[1] = 0 mg/kg, 72 h, dose level Control, time 3 day
[2] = 0 mg/kg, 120 h, dose level Control, time 5 day
[3] = 250 mg/kg, 72 h, dose level Low, time 3 day

`Cc1noc(NS(=O)(=O)c2ccc(N)cc2)c1C` [SULFISOXAZOLE] was tested, and the “ABSOLUTE BASOPHIL” value [1] was 0 CELLS/uL, the “ABSOLUTE EOSINOPHIL” value [1] was 0 CELLS/uL and the “ABSOLUTE LYMPHOCYTE” value [1] was 11091.17 CELLS/uL. For the same compound, the “ABSOLUTE MONOCYTE” value [1] was 172.17 CELLS/uL, the “ABSOLUTE SEGMENTED NEUTROPHIL” value [1] was 1186.67 CELLS/uL and the BASOPHIL [1] was 0%. For the same compound, the EOSINOPHIL [1] was 0%, the “ERYTHROCYTE COUNT” value [1] was 5.87 x10E6/uL and the HEMATOCRIT [1] was 36.87%. For the same compound, the HEMOGLOBIN [1] was 14.03 G/DL, the “LEUKOCYTE COUNT” value [1] was 12.45 x10E3/uL and the LYMPHOCYTE [1] was 88.67%. The “MEAN CORPUSCULAR HEMOGLOBIN” value [1] was 23.93 pg, the “MEAN CORPUSCULAR HEMOGLOBIN CONCENTRATION” value [1] was 38.1 G/DL and the MONOCYTE [1] was 1.5%. The NEUTROPHIL [1] was 9.83%, the “NUCLEATED RED BLOOD CELLS” value [1] was 0 /100WBC and the “PLATELET COUNT” value [1] was 1150.33 x10E3/uL. For the same compound, the “ALANINE AMINOTRANSFERASE” value [1] was 67.17 u/L, the ALBUMIN [1] was 4.03 G/DL and the “ALKALINE PHOSPHATASE” value [1] was 462.5 u/L. For the same compound, the “ASPARTATE AMINOTRANSFERASE” value [1] was 88 u/L, the “BLOOD UREA NITROGEN” value [1] was 13.17 mg/dL and the “CARBON DIOXIDE” value [1] was 29.33 mmol/L. For the same compound, the CHLORIDE [1] was 101 MEQ/L, the CHOLESTEROL [1] was 69.17 mg/dL and the “CREATINE PHOSPHOKINASE” value [1] was 292.5 u/L. For the same compound, the CREATININE [1] was 0.17 mg/dL, the GLUCOSE [1] was 167.5 mg/dL and the “LACTATE DEHYDROGENASE” value [1] was 198.5 u/L. For the same compound, the LIPASE [1] was 10.67 u/L, the PHOSPHORUS [1] was 11.73 mg/dL and the POTASSIUM [1] was 5.91 MEQ/L. The SODIUM [1] was 143.3 MEQ/L, the “TOTAL BILIRUBIN” value [1] was 0.18 mg/dL and the “TOTAL PROTEIN” value [1] was 5.7 G/DL. For the same compound, the “URIC ACID” value [1] was 1.3 mg/dL, the “ABSOLUTE BASOPHIL” value [2] was 0 CELLS/uL and the “ABSOLUTE EOSINOPHIL” value [2] was 64.33 CELLS/uL. The “ABSOLUTE LYMPHOCYTE” value [2] was 12494.67 CELLS/uL, the “ABSOLUTE MONOCYTE” value [2] was 117 CELLS/uL and the “ABSOLUTE SEGMENTED NEUTROPHIL” value [2] was 1340.67 CELLS/uL. For the same compound, the BASOPHIL [2] was 0%, the EOSINOPHIL [2] was 0.33% and the “ERYTHROCYTE COUNT” value [2] was 5.82 x10E6/uL. For the same compound, the HEMATOCRIT [2] was 36.97%, the HEMOGLOBIN [2] was 14.18 G/DL and the “LEUKOCYTE COUNT” value [2] was 14.02 x10E3/uL. For the same compound, the LYMPHOCYTE [2] was 89%, the “MEAN CORPUSCULAR HEMOGLOBIN” value [2] was 24.42 pg and the “MEAN CORPUSCULAR HEMOGLOBIN CONCENTRATION” value [2] was 38.4 G/DL. For the same compound, the MONOCYTE [2] was 0.83%, the NEUTROPHIL [2] was 9.83% and the “NUCLEATED RED BLOOD CELLS” value [2] was 0 /100WBC. The “PLATELET COUNT” value [2] was 1097.83 x10E3/uL, the “ALANINE AMINOTRANSFERASE” value [2] was 58.83 u/L and the ALBUMIN [2] was 3.92 G/DL. The “ALKALINE PHOSPHATASE” value [2] was 414.17 u/L, the “ASPARTATE AMINOTRANSFERASE” value [2] was 89.17 u/L and the “BLOOD UREA NITROGEN” value [2] was 16.83 mg/dL. The “CARBON DIOXIDE” value [2] was 29.17 mmol/L, the CHLORIDE [2] was 100.33 MEQ/L and the CHOLESTEROL [2] was 54.5 mg/dL. The “CREATINE PHOSPHOKINASE” value [2] was 386.17 u/L, the CREATININE [2] was 0.23 mg/dL and the GLUCOSE [2] was 184.17 mg/dL. For the same compound, the “LACTATE DEHYDROGENASE” value [2] was 229.17 u/L, the LIPASE [2] was 10.83 u/L and the PHOSPHORUS [2] was 10.88 mg/dL. For the same compound, the POTASSIUM [2] was 5.97 MEQ/L, the SODIUM [2] was 142.2 MEQ/L and the “TOTAL BILIRUBIN” value [2] was 0.12 mg/dL. For the same compound, the “TOTAL PROTEIN” value [2] was 5.63 G/DL, the “URIC ACID” value [2] was 1.55 mg/dL and the “ABSOLUTE BASOPHIL” value [3] was 0 CELLS/uL. The “ABSOLUTE EOSINOPHIL” value [3] was 53.33 CELLS/uL, the “ABSOLUTE LYMPHOCYTE” value [3] was 12619.33 CELLS/uL and the “ABSOLUTE MONOCYTE” value [3] was 200.67 CELLS/uL. The “ABSOLUTE SEGMENTED NEUTROPHIL” value [3] was 1193.33 CELLS/uL, the BASOPHIL [3] was 0% and the EOSINOPHIL [3] was 0.33%. For the same compound, the “ERYTHROCYTE COUNT” value [3] was 5.71 x10E6/uL, the HEMATOCRIT [3] was 36.37% and the HEMOGLOBIN [3] was 14.1 G/DL. The “LEUKOCYTE COUNT” value [3] was 14.07 x10E3/uL, the LYMPHOCYTE [3] was 89.67% and the “MEAN CORPUSCULAR HEMOGLOBIN” value [3] was 24.7 pg. The “MEAN CORPUSCULAR HEMOGLOBIN CONCENTRATION” value [3] was 38.77 G/DL, the MONOCYTE [3] was 1.33% and the NEUTROPHIL [3] was 8.67%. The “NUCLEATED RED BLOOD CELLS” value [3] was 0 /100WBC, the “PLATELET COUNT” value [3] was 1238.67 x10E3/uL and the “ALANINE AMINOTRANSFERASE” value [3] was 58.33 u/L. The ALBUMIN [3] was 4.03 G/DL, the “ALKALINE PHOSPHATASE” value [3] was 426.33 u/L and the “ASPARTATE AMINOTRANSFERASE” value [3] was 80.67 u/L. For the same compound, the “BLOOD UREA NITROGEN” value [3] was 15 mg/dL, the “CARBON DIOXIDE” value [3] was 27.33 mmol/L and the CHLORIDE [3] was 102.67 MEQ/L. The CHOLESTEROL [3] was 67.67 mg/dL, the “CREATINE PHOSPHOKINASE” value [3] was 283.67 u/L and the CREATININE [3] was 0.16 mg/dL. For the same compound, the GLUCOSE [3] was 171.67 mg/dL, the “LACTATE DEHYDROGENASE” value [3] was 137.33 u/L and the LIPASE [3] was 9.67 u/L. The PHOSPHORUS [3] was 11.9 mg/dL, the POTASSIUM [3] was 6.14 MEQ/L and the SODIUM [3] was 145.13 MEQ/L. The “TOTAL BILIRUBIN” value [3] was 0.13 mg/dL and the “TOTAL PROTEIN” value [3] was 5.6 G/DL.
